Experimental findings from US7455855B2, “Delivering substance and drug delivery system using the same” (Santen Pharmaceutical Co., Ltd., priority 2000, dated 2008) are described below.

The conditions of data set [1]: 3H-labelled, 100 μl/eye into vitreous body, moment method, 1 to 21 days, average of three samples.
Data set [2] in a line: Intraocular kinetic tests by fluorophotometry after injection into the vitreous body. The format is in vivo, white rabbits. The settings on record: for half-life: rabbit, other: injection into the vitreous body (intravitreal). How it is done: Intraocular kinetic tests were conducted by the following methods using the delivering substances A and B containing a fluorescence.
The same procedure as mentioned above was repeated except that fluorescein sodium was used instead of the delivering substances A and B to prepare a 10 μg/ml injection containing fluorescein sodium for comparison.
1) A mixed solution containing an aqueous ketamine hydrochloride solution (50 mg/ml) and an aqueous xylazine hydrochloride (50 mg/ml) in a ratio of 7:3 was administered intramuscularly to white rabbits to anesthetize.
2) A tropicamide (0.5%)/phenylephrine hydrochloride (0.5%) ophthalmic solution was instilled into both eyes to cause mydriasis in the both eyes.
3) The both eyes were anesthetized with an oxybuprocaine hydrochloride (0.5%) ophthalmic solution.
4) Each of the above-mentioned injection was administered to the center of a vitreous body from an ocular pars plana with a syringe equipped with a 30G needle.
5) Intraocular fluorescence intensity was measured with a fluorophotometry apparatus after the administration to the vitreous body at 1, 4, 7, 15, 35 and 56 days. A calibration curves were prepared, changes in concentration in the vitreous body and a retina were determined, and respective half-lives were calculated. The above-mentioned operations 1) and 2) were carried out before the intraocular fluorescence intensity was measured, too.
The numerical values in Tables 1 and 2 are the average of three samples respectively.

Structures can show the parent of a compound that is named as a salt. Where two headings read alike, the source gives them in different places. A value given as a limit tells only on which side of the number the result lay.

For the compound `C[C@]12N[C@H](Cc3ccccc31)c1ccccc12` [Comparative substance X, [5R,10S]-(+)-5-methyl-10,11-dihydro-5H-dibenzo[a,d]cycloheptene-5,10-imine maleate], the “Half-life (days) in the retina” value in data set [1] (retina) is 0.6 days. For the same compound, in data set [1] (vitreous body), the “Half-life (days) in the vitreous body” value was 0.5 days.

For orientation: half-life means the time needed for the level to fall by half in the phase considered. Consider `O=C1OC2(c3ccc(O)cc3Oc3cc(O)ccc32)c2ccccc21` [Fluorescein sodium, fluorescein sodium], for which the half-life in data set [2] (retina, restated in hours in the text, read-out: half-life in the retina) is under 0.1 days; in data set [2] (white, 10 μg/ml, retina, injection into the vitreous body, moment method from data measured 1 to 56 days after injection, average of three samples, read-out: Half-life (days) in the retina), under 0.1 days; in data set [2] (white, vitreous body, injection into the vitreous body, moment method from data measured 1 to 35 days after injection, average of three samples, read-out: Half-life (days) in the vitreous body) it was under 0.2 days. The “half-life in the vitreous body” value in data set [2] (vitreous body, restated in hours in the text) was “less than five hours”.
